Test results published in patent publication US20230348426A1, “OXOPYRROLIDINE FPR2 AGONISTS” (Bristol-Myers Squibb Company, priority 2020, published 2023).
pEC50: −log10 of the molar value.

How the values were obtained:
human FPR1 = human FPR1 (Homo sapiens (Human), UniProt P21462); assay: FPR1 cyclic adenosine monophosphate (cAMP) assay; type: cell-based; conditions: CHO cells overexpressing human FPR1; forskolin 10 µM; inhibition of cAMP production; read-out: hFPR1 cAMP EC50
In short: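 CHO cells overexpressing human FPR1 (4,000 cells/well) stimulated with 10 µM forskolin plus 200 µM IBMX in the presence of compound (0.020 nM–100 µM, 1% DMSO), 30 min at room temperature. Intracellular cAMP measured by HTRF. Inhibition of cAMP production fitted to a 4-parameter logistic equation.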

human FPR2 = human FPR2 (Homo sapiens (Human), UniProt P25090); assay: FPR2 cyclic adenosine monophosphate (cAMP) assay; type: cell-based; conditions: CHO cells overexpressing human FPR2; forskolin 5 µM; inhibition of cAMP production; read-out: hFPR2 cAMP2 EC50
In short: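 CHO cells overexpressing human FPR2 (2,000/well) incubated 30 min at room temperature with compound (0.020 nM–100 µM, 1% DMSO), 5 µM forskolin and 200 µM IBMX.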

human FPR1, sequence (P21462 whole entry): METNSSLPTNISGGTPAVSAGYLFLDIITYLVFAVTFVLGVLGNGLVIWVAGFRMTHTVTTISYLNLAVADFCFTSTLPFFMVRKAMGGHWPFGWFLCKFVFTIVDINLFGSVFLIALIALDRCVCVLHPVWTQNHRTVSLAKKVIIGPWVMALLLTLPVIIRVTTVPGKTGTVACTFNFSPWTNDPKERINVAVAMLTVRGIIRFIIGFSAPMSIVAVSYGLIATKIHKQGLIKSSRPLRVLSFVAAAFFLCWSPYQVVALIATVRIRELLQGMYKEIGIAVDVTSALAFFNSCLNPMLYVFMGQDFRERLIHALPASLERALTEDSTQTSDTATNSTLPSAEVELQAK
human FPR2, sequence (P25090 whole entry): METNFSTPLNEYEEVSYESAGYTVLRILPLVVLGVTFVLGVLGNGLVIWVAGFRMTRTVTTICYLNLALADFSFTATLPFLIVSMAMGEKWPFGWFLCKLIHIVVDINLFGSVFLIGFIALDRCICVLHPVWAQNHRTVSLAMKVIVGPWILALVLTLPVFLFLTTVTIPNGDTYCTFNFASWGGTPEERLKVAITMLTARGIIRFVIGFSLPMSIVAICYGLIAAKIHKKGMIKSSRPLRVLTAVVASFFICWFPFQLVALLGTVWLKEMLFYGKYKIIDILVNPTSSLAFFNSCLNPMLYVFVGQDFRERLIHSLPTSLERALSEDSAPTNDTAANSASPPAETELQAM

SMILES | pEC50 (human FPR1) | pEC50 (human FPR2)
CCn1nccc(N2C[C@@H](c3ccc(OC)cc3)[C@H](NC(=O)c3ccc(OC(F)F)cc3)C2=O)c1=O [Example 674] | 7.64 | 8.17
CCn1nccc(N2C[C@@H](c3ccc(OC)cc3)[C@H](NC(=O)c3ccc(OC(F)(F)F)cc3)C2=O)c1=O [Example 675] | 8.30 | 8.26
COc1cc(F)c([C@@H]2CN(c3nccc(OCC(C)(C)O)c3C(F)(F)F)C(=O)[C@H]2NC(=O)c2ccc(Cl)cc2)c(F)c1 [Example 676] | 6.53 | 7.89
COc1cc(F)c([C@@H]2CN(c3cccn(CC(O)CO)c3=O)C(=O)[C@H]2NC(=O)c2ccc(Cl)cc2)c(F)c1 (stereo partly shown) [Example 677] | 6.64 | 8.28
COc1cc(F)c([C@@H]2CN(c3cccn(CC(O)CO)c3=O)C(=O)[C@H]2NC(=O)c2ccc(OC(F)F)cc2)c(F)c1 (stereo partly shown) [Example 678] | 7.04 | 7.96
COc1cc(F)c([C@@H]2CN(c3cccn(CC(O)CO)c3=O)C(=O)[C@H]2NC(=O)c2ccc(OC(F)(F)F)cc2)c(F)c1 (stereo partly shown) [Example 679] | 7.55 | 8.22
COc1cc(F)c([C@@H]2CN(c3cccn(CC(O)CO)c3=O)C(=O)[C@H]2NC(=O)c2ccc(Cl)cc2)c(F)c1 (stereo partly shown) [Example 680] | 6.11 | 8.55
COc1cc(F)c([C@@H]2CN(c3cccn(CC(O)CO)c3=O)C(=O)[C@H]2NC(=O)c2ccc(OC(F)F)cc2)c(F)c1 (stereo partly shown) [Example 681] | 6.00 | 8.00
COc1ccc([C@@H]2CN(c3ccnn(CC(F)F)c3=O)C(=O)[C@H]2NC(=O)c2ccc(Cl)cc2)cc1 [Example 690] | 7.62 | 7.96
COc1ccc([C@@H]2CN(c3ccnn(CC(F)F)c3=O)C(=O)[C@H]2NC(=O)c2ccc(OC(F)F)cc2)cc1 [Example 691] | 7.96 | 7.96
COc1ccc([C@@H]2CN(c3ccnn(CC(F)F)c3=O)C(=O)[C@H]2NC(=O)c2ccc(OC(F)(F)F)cc2)c(F)c1 [Example 696] | 8.08 | 8.14
COc1cc(F)c([C@@H]2CN(c3c(C)ccn(CC4CCOC4)c3=O)C(=O)[C@H]2NC(=O)c2ccc(OC(F)(F)F)cc2)c(F)c1 (stereo partly shown) [Example 697] | 8.17 | 8.44
COc1cc(F)c([C@@H]2CN(c3c(C)ccn(C4CCS(=O)(=O)C4)c3=O)C(=O)[C@H]2NC(=O)c2ccc(OC(F)F)cc2)c(F)c1 (stereo partly shown) [Example 701] | 7.57 | 7.92
COc1cc(F)c([C@@H]2CN(c3c(C)ccn(C4CCS(=O)(=O)C4)c3=O)C(=O)[C@H]2NC(=O)c2ccc(OC(F)(F)F)cc2)c(F)c1 (stereo partly shown) [Example 702] | 8.12 | 8.07
COc1cc(F)c([C@@H]2CN(c3ccc(C(=O)O)n(CCO)c3=O)C(=O)[C@H]2NC(=O)c2ccc(OC(F)(F)F)cc2)c(F)c1 [Example 703] | 7.00 | 7.24
COc1cc(F)c([C@@H]2CN(c3c(C)ccn(C(CO)C(F)(F)F)c3=O)C(=O)[C@H]2NC(=O)c2ccc(OC(F)F)cc2)c(F)c1 (stereo partly shown) [Example 706] | 7.72 | 8.03
COc1cc(F)c([C@@H]2CN(c3c(C)ccn(C(CO)C(F)(F)F)c3=O)C(=O)[C@H]2NC(=O)c2ccc(OC(F)F)cc2)c(F)c1 (stereo partly shown) [Example 707] | 6.89 | 8.27
COc1cc(F)c([C@@H]2CN(c3nccc(OC4CCOC4)c3C(F)(F)F)C(=O)[C@H]2NC(=O)c2ccc(Cl)cc2)c(F)c1 (stereo partly shown) [Example 708] | < 6.00 | 7.96
COc1cc(F)c([C@@H]2CN(c3nccc(OC4CCOC4)c3C(F)(F)F)C(=O)[C@H]2NC(=O)c2ccc(Cl)cc2)c(F)c1 (stereo partly shown) [Example 709] | 6.68 | 7.85
COc1cc(F)c([C@@H]2CN(c3cncn(C4CCNC4)c3=O)C(=O)[C@H]2NC(=O)c2ccc(Cl)cc2)c(F)c1 (stereo partly shown) [Example 710] | 6.31 | 8.40
COc1cc(C2CCN(CCF)CC2)nc(N2C(=O)[C@@H](NC(=O)c3ccc(OC(F)F)cc3)[C@H](c3c(F)cc(OC)cc3F)[C@@H]2C)c1 [Example 711] | 5.47 | 8.38
COc1cc(F)c([C@@H]2CN(c3cncn(C4CCN(C)C4)c3=O)C(=O)[C@H]2NC(=O)c2ccc(Cl)cc2)c(F)c1 (stereo partly shown) [Example 713] | < 5.30 | 8.40
COc1cc(F)c([C@@H]2CN(c3cncn(C4CCNC4)c3=O)C(=O)[C@H]2NC(=O)c2ccc(Cl)cc2)c(F)c1 (stereo partly shown) [Example 714] | 5.44 | 8.19
COc1cc(F)c([C@@H]2CN(c3cc(C)cc(C4CCN(CCO)CC4)n3)C(=O)[C@H]2NC(=O)c2ccc(OC(F)F)cc2)c(F)c1 [Example 715] | < 5.30 | 8.26

Further lines, results first:

pEC50 (human FPR1) | pEC50 (human FPR2) | SMILES
8.30 | 8.10 | COc1ccc([C@@H]2CN(c3ccnn(CCC(F)(F)F)c3=O)C(=O)[C@H]2NC(=O)c2ccc(OC(F)F)cc2)cc1 [Example 672]
9.00 | 7.82 | COc1cc(F)c([C@@H]2CN(c3c(C)ccn(CC(O)C4CC4)c3=O)C(=O)[C@H]2NC(=O)c2ccc(OC(F)F)cc2)c(F)c1 (stereo partly shown) [Example 682]
8.85 | 7.85 | COc1cc(F)c([C@@H]2CN(c3c(C)ccn(CC(O)C4CC4)c3=O)C(=O)[C@H]2NC(=O)c2ccc(OC(F)F)cc2)c(F)c1 (stereo partly shown) [Example 685]
9.55 | 8.74 | COc1ccc([C@@H]2CN(c3c(C)ccn(C4CCC4)c3=O)C(=O)[C@H]2NC(=O)c2ccc(OC(F)(F)F)cc2)cc1 [Example 687]
8.82 | 7.92 | COc1ccc([C@@H]2CN(c3c(C)ccn(C4CCC4)c3=O)C(=O)[C@H]2NC(=O)c2ccc(OC(F)(F)F)cc2)c(F)c1 [Example 688]
8.82 | 8.35 | COc1ccc([C@@H]2CN(c3c(C)ccn(C4CCC4)c3=O)C(=O)[C@H]2NC(=O)c2ccc(OC(F)F)cc2)c(F)c1 [Example 689]
8.55 | 8.42 | COc1ccc([C@@H]2CN(c3ccnn(CC(F)F)c3=O)C(=O)[C@H]2NC(=O)c2ccc(OC(F)(F)F)cc2)cc1 [Example 692]
8.60 | 8.70 | COc1cc(F)c([C@@H]2CN(c3c(C)ccn(CC4CCOC4)c3=O)C(=O)[C@H]2NC(=O)c2ccc(OC(F)F)cc2)c(F)c1 (stereo partly shown) [Example 693]
8.40 | 8.46 | COc1cc(F)c([C@@H]2CN(c3c(C)ccn(CC4CCOC4)c3=O)C(=O)[C@H]2NC(=O)c2ccc(OC(F)F)cc2)c(F)c1 (stereo partly shown) [Example 695]
8.60 | 8.24 | COc1ccc([C@@H]2CN(c3c(C)ccn(CC4CCOCC4)c3=O)C(=O)[C@H]2NC(=O)c2ccc(OC(F)F)cc2)c(F)c1 [Example 698]
8.52 | 8.18 | COc1ccc([C@@H]2CN(c3c(C)ccn(CC4CCOCC4)c3=O)C(=O)[C@H]2NC(=O)c2ccc(OC(F)F)cc2)cc1 [Example 699]
9.17 | 8.52 | COc1ccc([C@@H]2CN(c3c(C)ccn(CC4CCOCC4)c3=O)C(=O)[C@H]2NC(=O)c2ccc(OC(F)(F)F)cc2)cc1 [Example 700]
9.00 | 8.62 | COc1ccc([C@@H]2CN(c3c(C)ccn(C4CCOC4)c3=O)C(=O)[C@H]2NC(=O)c2ccc(OC(F)(F)F)cc2)cc1 (stereo partly shown) [Example 704]
8.41 | 9.22 | COCC(CO)n1cccc(N2C[C@@H](c3ccc(OC)cc3F)[C@H](NC(=O)c3ccc(OC(F)(F)F)cc3)C2=O)c1=O (stereo partly shown) [Example 705]
